Results as given in the NIST ThermoML archive (doi:10.1016/j.fluid.2005.05.023).

Experiment: xn = mol fraction of the nth substance listed
Conditions: Liquid, Vibrating tube method

Cc1ccccc1 [toluene] + CCO
mass density [kg/m3]
Conditions | 100 kPa | 5000 kPa | 10000 kPa | 15000 kPa | 20000 kPa | 25000 kPa | 30000 kPa | 35000 kPa | 40000 kPa | 45000 kPa
293.15 K, x2 = 0.75 | – | – | – | – | – | – | – | – | – | 851
293.15 K, x2 = 0.875 | – | – | – | – | – | – | – | – | – | 838
303.15 K, x2 = 0 | 857.5 | 861.4 | 865.2 | 868.8 | 872.3 | 875.7 | 879 | 882.1 | 885.2 | 888.1
303.15 K, x2 = 0.125 | 851.4 | 855.4 | 859.2 | 862.9 | 866.4 | 869.9 | 873.2 | 876.4 | 879.4 | 882.5
303.15 K, x2 = 0.25 | 845.3 | 849.3 | 853.2 | 856.9 | 860.5 | 863.9 | 867.3 | 870.4 | 873.6 | 876.6
303.15 K, x2 = 0.375 | 838.5 | 842.6 | 846.5 | 850.3 | 853.9 | 857.3 | 860.7 | 863.9 | 867.1 | 870.1
303.15 K, x2 = 0.5 | 830.8 | 834.8 | 838.8 | 842.6 | 846.2 | 849.7 | 853.1 | 856.4 | 859.5 | 862.6
303.15 K, x2 = 0.625 | 821.7 | 825.8 | 829.8 | 833.7 | 837.3 | 840.9 | 844.3 | 847.6 | 850.7 | 853.8
303.15 K, x2 = 0.75 | 810.9 | 815.1 | 819.2 | 823.1 | 826.8 | 830.4 | 833.8 | 837.1 | 840.3 | 843.4
303.15 K, x2 = 0.875 | 797.6 | 801.9 | 806.1 | 810 | 813.8 | 817.4 | 820.9 | 824.3 | 827.5 | 830.6
313.15 K, x2 = 0 | 848.1 | 852.2 | 856.2 | 860 | 863.7 | 867.3 | 870.7 | 874 | 877.2 | 880.3
313.15 K, x2 = 0.125 | 841.8 | 845.9 | 850 | 853.9 | 857.7 | 861.3 | 864.7 | 868.1 | 871.3 | 874.5
313.15 K, x2 = 0.25 | 835.6 | 839.8 | 844 | 847.9 | 851.7 | 855.3 | 858.8 | 862.2 | 865.4 | 868.6
313.15 K, x2 = 0.375 | 828.9 | 833.2 | 837.3 | 841.3 | 845.1 | 848.8 | 852.3 | 855.7 | 859 | 862.2
313.15 K, x2 = 0.5 | 821.2 | 825.5 | 829.7 | 833.7 | 837.5 | 841.2 | 844.8 | 848.2 | 851.5 | 854.7
313.15 K, x2 = 0.625 | 812.2 | 816.5 | 820.8 | 824.8 | 828.7 | 832.5 | 836 | 839.4 | 842.8 | –
313.15 K, x2 = 0.75 | 801.6 | 806 | 810.3 | 814.4 | 818.3 | 822.1 | 825.7 | 829.2 | 832.5 | –
313.15 K, x2 = 0.875 | 788.6 | 793.1 | 797.5 | 801.6 | 805.6 | 809.4 | 813.1 | 816.6 | 819.9 | –
